What was measured:
Test in all cases: Test D controlled growth environment herbicide test, pre- and postemergence
Assay type in all cases: in vivo
[1] = test system: foxtail, green (green foxtail, Setaria viridis)
Excerpt: (§1) Seeds of plant species selected from bluegrass (annual bluegrass, Poa annua), blackgrass (Alopecurus myosuroides), Canada thistle (Cirsium arvense), canarygrass (Phalaris minor), chickweed (common chickweed, Stellaria media), geranium, cutleaf (cutleaf geranium, Geranium dissectum), galium (catchweed bedstraw, Galium aparine), bromegrass, downy (downy bromegrass, Bromus tectorum), field poppy (Papaver rhoeas), field violet (Viola arvensis), foxtail, green (green foxtail, Setaria viridis), deadnettle (henbit deadnettle, Lamium amplexicaule), ryegrass, Italian (Italian ryegrass, Lolium multiflorum), kochia (Kochia scoparia), lambsquarters (Chenopodium album), oilseed rape (Brassica napus), pigweed (Amaranthus retroflexus), chamomile (scentless chamomile, Matricaria inodora), Russian thistle (Salsola kali), speedwell (bird's-eye speedwell, Veronica persica), barley, spring (spring barley, Hordeum vulgare), wheat, spring (spring wheat, Triticum aestivum), buckwheat, wild (wild buckwheat, Polygonum convolvulus), mustard, wild (wild mustard, Sinapis arvensis), oat, wild (wild oat, Avena fatua), radish, wild (wild radish, Raphanus raphanistrum), windgrass (Apera spica-venti), barley, winter (winter barley, Hordeum vulgare), and wheat, winter (winter wheat, Triticum aestivum) were planted into a silt loam soil and treated preemergence with test chemicals formulated in a non-phytotoxic solvent mixture which included a surfactant.
(§2) At the same time, these species were planted in pots containing Redi-Earth® planting medium (Scotts Company, 14111 Scottslawn Road, Marysville, Ohio 43041) comprising spaghnum peat moss, vermiculite, wetting agent and starter nutrients and treated with postemergence applications of the test chemicals formulated in the same manner. Plants ranged in height from 2 to 18 cm (1- to 4-leaf stage). Treated plants and controls were maintained in a controlled growth environment for 14 to 21 d after which time all species were compared to controls and visually evaluated. Plant response ratings, summarized in Table D, are based on a scale of 0 to 100 where 0 is no effect and 100 is complete control. A dash (-) response means no test result.

[2] = test system: wheat, winter (winter wheat, Triticum aestivum)
Excerpt: as §1, §2

kochia (Kochia scoparia) = test system: kochia (Kochia scoparia)
Excerpt: as §1, §2

[3] = test system: deadnettle (henbit deadnettle, Lamium amplexicaule)
Excerpt: as §1, §2

[4] = test system: field violet (Viola arvensis)
Excerpt: as §1, §2

[5] = test system: barley, spring (spring barley, Hordeum vulgare)
Excerpt: as §1, §2

[6] = test system: windgrass (Apera spica-venti)
Excerpt: as §1, §2

[7] = test system: wheat, spring (spring wheat, Triticum aestivum)
Excerpt: as §1, §2

[8] = test system: pigweed (Amaranthus retroflexus)
Excerpt: as §1, §2

[9] = test system: oat, wild (wild oat, Avena fatua)
Excerpt: as §1, §2

[10] = test system: mustard, wild (wild mustard, Sinapis arvensis)
Excerpt: as §1, §2

[11] = test system: bluegrass (annual bluegrass, Poa annua)
Excerpt: as §1, §2

[12] = Postemergence, 31 g ai/ha, scale 0 to 100 (0 no effect, 100 complete control)
[13] = Postemergence, 125 g ai/ha, visual rating on scale 0 (no effect) to 100 (complete control), 14 to 21 d
[14] = Postemergence, 250 g ai/ha, scale 0 to 100 (0 no effect, 100 complete control)
[15] = Preemergence, 62 g ai/ha, scale 0 to 100 (0 no effect, 100 complete control)
[16] = Preemergence, 125 g ai/ha, scale 0 to 100 (0 no effect, 100 complete control)
[17] = Preemergence, 250 g ai/ha, scale 0 to 100 (0 no effect, 100 complete control)
[18] = postemergence, 62 g ai/ha, scale 0 to 100, 0 no effect, 100 complete control

Compound: Cc1ccc2sc(C)c(-c3c(O)c(C)nn(C)c3=O)c2c1 [Compound 1, 4-(2,5-dimethylbenzo[b]thien-3-yl)-5-hydroxy-2,6-dimethyl-3(2H)-pyridazinone]
- Foxtail, Green plant response rating [1, 12]: 50
- Plant response rating, Foxtail, Green [1, 13]: 75
- Plant response rating, Foxtail, Green [1, 14]: 85
- Plant response rating (scale of 0 to 100), Foxtail, Green ([1]; Preemergence, 31 g ai/ha): 10
- Plant response rating, Foxtail, Green [1, 15]: 15
- Plant response rating, Foxtail, Green [1, 16]: 75
- Plant response rating, Foxtail, Green [1, 17]: 100
- Plant response rating, Foxtail, Green [1, 18]: 65
- Wheat, Winter plant response rating [2, 12]: 0
- Plant response rating, Wheat, Winter [2, 13]: 0
- Plant response rating, Wheat, Winter [2, 14]: 5
- Plant response rating (scale of 0 to 100), Wheat, Winter ([2]; Preemergence, 31 g ai/ha): 0
- Plant response rating, Wheat, Winter [2, 15]: 0
- Plant response rating, Wheat, Winter [2, 16]: 5
- Plant response rating, Wheat, Winter [2, 17]: 5
- Plant response rating, Wheat, Winter [2, 18]: 0
- Kochia plant response rating (kochia (Kochia scoparia); [12]): 70
- Plant response rating, Kochia (kochia (Kochia scoparia); [13]): 95
- Plant response rating, Kochia (kochia (Kochia scoparia); [14]): 100
- Plant response rating (scale of 0 to 100), Kochia (kochia (Kochia scoparia); Preemergence, 31 g ai/ha): 0
- Plant response rating, Kochia (kochia (Kochia scoparia); [15]): 0
- Plant response rating, Kochia (kochia (Kochia scoparia); [16]): 35
- Plant response rating, Kochia (kochia (Kochia scoparia); [17]): 75
- Plant response rating, Kochia (kochia (Kochia scoparia); [18]): 85
- Deadnettle plant response rating [3, 12]: 35
- Plant response rating, Deadnettle [3, 13]: 35
- Plant response rating, Deadnettle [3, 14]: 70
- Plant response rating (scale of 0 to 100), Deadnettle ([3]; Preemergence, 31 g ai/ha): 0
- Plant response rating, Deadnettle [3, 15]: 0
- Plant response rating, Deadnettle [3, 16]: 0
- Plant response rating, Deadnettle [3, 17]: 60
- Plant response rating, Deadnettle [3, 18]: 35
- Field Violet plant response rating [4, 12]: 85
- Plant response rating, Field Violet [4, 13]: 90
- Plant response rating, Field Violet [4, 14]: 95
- Plant response rating (scale of 0 to 100), Field Violet ([4]; Preemergence, 31 g ai/ha): 95
- Plant response rating, Field Violet [4, 15]: 100
- Plant response rating, Field Violet [4, 16]: 100
- Plant response rating, Field Violet [4, 17]: 100
- Plant response rating, Field Violet [4, 18]: 75
- Plant response rating, Barley, Spring [5, 12]: 0
- Plant response rating, Barley, Spring [5, 13]: 5
- Plant response rating, Barley, Spring [5, 14]: 10
- Plant response rating (scale of 0 to 100), Barley, Spring ([5]; Preemergence, 31 g ai/ha): 0
- Plant response rating, Barley, Spring [5, 15]: 0
- Plant response rating, Barley, Spring [5, 16]: 10
- Barley, Spring plant response rating [5, 17]: 15
- Plant response rating, Barley, Spring [5, 18]: 5
- Windgrass plant response rating [6, 12]: 10
- Plant response rating, Windgrass [6, 13]: 50
- Plant response rating, Windgrass [6, 14]: 70
- Plant response rating (scale of 0 to 100), Windgrass ([6]; Preemergence, 31 g ai/ha): 15
- Plant response rating, Windgrass [6, 15]: 60
- Plant response rating, Windgrass [6, 16]: 85
- Plant response rating, Windgrass [6, 17]: 100
- Plant response rating, Windgrass [6, 18]: 25
- Wheat, Spring plant response rating [7, 12]: 0
- Plant response rating, Wheat, Spring [7, 13]: 10
- Plant response rating, Wheat, Spring [7, 14]: 15
- Plant response rating (scale of 0 to 100), Wheat, Spring ([7]; Preemergence, 31 g ai/ha): 0
- Plant response rating, Wheat, Spring [7, 15]: 0
- Plant response rating, Wheat, Spring [7, 16]: 0
- Plant response rating, Wheat, Spring [7, 17]: 10
- Plant response rating, Wheat, Spring [7, 18]: 0
- Pigweed plant response rating [8, 12]: 80
- Plant response rating, Pigweed [8, 13]: 100
- Plant response rating, Pigweed [8, 14]: 100
- Plant response rating (scale of 0 to 100), Pigweed ([8]; Preemergence, 31 g ai/ha): 70
- Plant response rating, Pigweed [8, 15]: 100
- Plant response rating, Pigweed [8, 16]: 100
- Plant response rating, Pigweed [8, 17]: 100
- Plant response rating, Pigweed [8, 18]: 90
- Oat, Wild plant response rating [9, 12]: 40
- Plant response rating, Oat, Wild [9, 13]: 80
- Plant response rating, Oat, Wild [9, 14]: 95
- Plant response rating (scale of 0 to 100), Oat, Wild ([9]; Preemergence, 31 g ai/ha): 75
- Plant response rating, Oat, Wild [9, 15]: 70
- Plant response rating, Oat, Wild [9, 16]: 95
- Plant response rating, Oat, Wild [9, 17]: 100
- Plant response rating, Oat, Wild [9, 18]: 70
- Mustard, Wild plant response rating [10, 12]: 25
- Plant response rating, Mustard, Wild [10, 13]: 40
- Plant response rating, Mustard, Wild [10, 14]: 65
- Plant response rating (scale of 0 to 100), Mustard, Wild ([10]; Preemergence, 31 g ai/ha): 0
- Plant response rating, Mustard, Wild [10, 15]: 0
- Plant response rating, Mustard, Wild [10, 16]: 10
- Plant response rating, Mustard, Wild [10, 17]: 25
- Plant response rating, Mustard, Wild [10, 18]: 30
- Bluegrass plant response rating [11, 12]: 0
- Plant response rating, Bluegrass [11, 13]: 5
- Plant response rating, Bluegrass [11, 14]: 5
- Plant response rating (scale of 0 to 100), Bluegrass ([11]; Preemergence, 31 g ai/ha): 5
- Plant response rating, Bluegrass [11, 15]: 15
- Plant response rating, Bluegrass [11, 16]: 35
- Bluegrass plant response rating [11, 17]: 50
- Plant response rating, Bluegrass [11, 18]: 5

Source: patent publication US10597388B2, “Pyridazinone herbicides” (FMC CORPORATION, priority 2014, dated 2020)
